# Source: patent US4263283A, “Method for prophylaxis and/or treatment of sickle cell disease” (Ferring Pharmaceuticals, Inc., priority 1980, dated 1981)
# Experiments:
# [1] = system: sickle cell disease
# Description: The patient was a person with sickle cell disease characterized by diffuse pain involving the spine, long bones and abdomen; an elevated serum bilirubin and leukocytosis (the former indicating at least temporary liver damage due to the disease); a reticulocyte count of about 15% (indicating formation of new red blood cells) and a hematocrit of 24-30% (below the normal level of 43-45%). Prior treatment included i.v. hydration, transfusion with packed red blood cells and i.v. narcotics to manage the pain.
# Because of the increasing frequency and severity of sickling crises, they were treated with desmopressin to induce a state of chronic hypo-osmolalityof body fluids by combination with increasd oral fluid administration.
# [2] = in vivo; cited from earlier work
# [3] = desmopressin 40 mcg intranasally every 6 hours + hydrochlorothiazide 100 mg daily, fluid intake 4.3±0.15 l/day
SMILES,"effect on attainment of hyponatremic state ([1]; 100 mg daily, added to desmopressin and fluid intake of 4-5 l. daily)",pain and jaundice after regimen re-instated ([1]; after crisis signs on withdrawal),period free of any signs or symptoms of sickle cell crisis ([1]; after re-instatement of the regimen) [months],serum Na after regimen re-instated ([1]; decreased from 142 mM after re-instatement of desmopressin regimen) [mM],"serum Na level at plateau [1, 3] [mM]","urine osmolality at plateau [1, 3] [m Osm/kg]",time free of any signs of crisis ([1]; first period on the regimen) [days],"untoward side-effects of the induced hyponatremia (nausea, cramps, disturbances in central nervous function) ([1]; human, in vivo)",vascular or non-vascular smooth muscle side effects [2]
NS(=O)(=O)c1cc2c(cc1Cl)NCNS2(=O)=O [Hydrochlorothiazide],facilitated the attainment of a hyponatremic state,,,,,,,,
"NC(=O)CC[C@@H]1NC(=O)[C@H](Cc2ccccc2)NC(=O)[C@H](Cc2ccc(O)cc2)NC(=O)CCSSC[C@@H](C(=O)N2CCC[C@H]2C(=O)N[C@H](CCCN=C(N)N)C(=O)NCC(N)=O)NC(=O)[C@H](CC(N)=O)NC1=O [desmopressin, 1-deamino-8-D-arginine vasopressin]",,pain and jaundice abated,6,127,125,344±13,54,has not been associated with untoward side-effects,devoid of vascular or non-vascular smooth muscle side effects
